PMC9922277, “Repositioning Lomitapide to block ZDHHC5-dependant palmitoylation on SSTR5 leads to anti-proliferation effect in preclinical pancreatic cancer models” (Cell Death Discovery, 2023)
Ends that are not written are not given here.

B1: SSTR5 protein fragment (cytoplasmic tail 307-364aa) (domain or fragment, UniProt P35346 307-364, looked up)
chain: LSDNFRQSFQKVLCLRKGSGAKDADATEPRPDRIRQQQEATPPAHRAAANGLMQTSKL
modifications: also: RED-NHS dye label in the labeled-partner assay, site not given here
notes: also called SSTR5 (307-362 aa); SSTR5 cytoplasmic tail

Columns and labels:
ZDHHC5 = target: T1, ZDHHC5 (Homo sapiens, UniProt Q9C0B5); experiment: microscale thermophoresis (MST) with labeled ZDHHC5 fragment; type: binding
T1 construct: protein fragment 60-148aa expressed using Yeast

[1] = target: T2, ZDHHC5 protein fragment (60-148aa), ZDHHC5's substrate binding domain (UniProt Q9C0B5 60-148, RED-NHS 2nd Generation dye label where it was the labeled partner (assay without Lomitapide); unlabeled in the assay with Lomitapide); experiment: MST; in the presence of 25 uM Lomitapide: 20 nM labeled SSTR5 and 25 uM Lomitapide mixed with unlabeled ZDHHC5 in 16 serial concentrations (maximum 200 nM), RT, 1.05*PBS; conditions: both partners purified
T2 construct: also called ZDHHC5 substrate domain; source: expressed using Yeast; labeled and purified with the labeling kit

[2] = target: T2, ZDHHC5 protein fragment (60-148aa), …; experiment: MST; 20 nM labeled ZDHHC5 mixed with unlabeled SSTR5 in 16 serial concentrations (maximum 200 nM), RT, 1.05*PBS; Monolith NT.115, LED 20%, medium MST power; conditions: both partners purified

T2 sequence (Q9C0B5 60-148): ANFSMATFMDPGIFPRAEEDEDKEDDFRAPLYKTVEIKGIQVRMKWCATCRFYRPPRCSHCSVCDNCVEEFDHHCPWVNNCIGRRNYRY
T1 sequence (Q9C0B5 60-148): as above

Molecule	Kd (ZDHHC5)	Kd [1]	Kd [2]
O=C(NC1CCN(CCCCC2(C(=O)NCC(F)(F)F)c3ccccc3-c3ccccc32)CC1)c1ccccc1-c1ccc(C(F)(F)F)cc1 [Lomitapide]	509 nM	–	–
CCCCCCCCCCCCCCCC(=O)O [palmitic acid]	88 nM	–	–
B1	–	22.5 nM	2.06 nM
